Literature values as cited in US11666634B2, “Methods and compositions for management of gastrointestinal disorders” (THE BOARD OF REGENTS OF THE UNIVERSITY OF TEXAS SYSTEM, priority 2019, dated 2023).

## CC[C@H](C)[C@H](NC(=O)[C@@H]1CCCN1C(=O)CNC(=O)[C@H](Cc1ccccc1)NC(=O)[C@H](CC(N)=O)NC(=O)[C@H](CC(N)=O)NC(=O)[C@H](CO)NC(=O)[C@H](CO)NC(=O)[C@H](Cc1c[nH]cn1)NC(=O)[C@@H](NC(=O)[C@H](CC(C)C)NC(=O)[C@H](Cc1ccccc1)NC(=O)[C@H](CC(N)=O)NC(=O)[C@H](C)NC(=O)[C@H](CC(C)C)NC(=O)[C@H](CCCNC(=N)N)NC(=O)[C@H](CCC(N)=O)NC(=O)[C@@H](NC(=O)[C@H](C)NC(=O)[C@@H]1CSSC[C@H](NC(=O)[C@@H](N)CCCCN)C(=O)N[C@@H](CC(N)=O)C(=O)N[C@@H]([C@@H](C)O)C(=O)N[C@@H](C)C(=O)N[C@@H]([C@@H](C)O)C(=O)N1)[C@@H](C)O)C(C)C)C(=O)N[C@@H](CC(C)C)C(=O)N1CCC[C@H]1C(=O)N1CCC[C@H]1C(=O)N[C@H](C(=O)N[C@@H](CC(N)=O)C(=O)N[C@H](C(=O)NCC(=O)N[C@@H](CO)C(=O)N[C@@H](CC(N)=O)C(=O)N[C@H](C(=O)N[C@@H](Cc1ccc(O)cc1)C(N)=O)[C@@H](C)O)C(C)C)[C@@H](C)O [Pramlintide, pramlintide]
Gastric emptying of a liquid, delayed from a half time of 30 minutes without pramlintide
  gastric emptying half time: 110 min
Result in words
  rate of gastric emptying: significantly decreased
